Laboratory results: patent US7652022B2, “Diaryl urea derivatives useful for the treatment of protein kinase dependent diseases” (Novartis AG, priority 2002, dated 2010)

Legend:
[1] = biological target: T1, c-Abl kinase (His-tagged kinase domain of c-Abl) (Homo sapiens, UniProt P00519); test: c-Abl protein-tyrosine kinase in vitro enzyme filter binding assay; format: biochemical; conditions: % inhibition at 10 μM
T1 construct: The His-tagged kinase domain of c-Abl is cloned and expressed in the baculovirus/Sf9 system; His tag; made in house; host or cells: Sf9 insect cells (baculovirus)
T1 sequence (P00519 242-493 limits assumed): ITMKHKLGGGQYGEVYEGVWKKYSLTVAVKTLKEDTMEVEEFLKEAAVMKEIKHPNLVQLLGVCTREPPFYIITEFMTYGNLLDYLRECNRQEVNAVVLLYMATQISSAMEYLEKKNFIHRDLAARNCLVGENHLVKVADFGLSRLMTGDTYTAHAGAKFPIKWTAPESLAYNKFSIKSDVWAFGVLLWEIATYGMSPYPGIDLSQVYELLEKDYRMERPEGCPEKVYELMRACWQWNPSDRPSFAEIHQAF
Procedure: An in vitro enzyme assay is performed in 96-well plates as a filter binding assay as described by Geissler et al. in Cancer Res. 1992; 52:4492-4498, with the following modifications. The His-tagged kinase domain of c-Abl is cloned and expressed in the baculovirus/Sf9 system as described by Bhat et al. in J. Biol. Chem. 1997; 272:16170-16175. A protein of 37 kD (c-Abl kinase) is purified by a two-step procedure over a Cobalt metal chelate column followed by an anion exchange column with a yield of 1-2 mg/L of Sf9 cells (Bhat et al., reference cited). The purity of the c-Abl kinase is >90% as judged by SDS-PAGE after Coomassie blue staining. The assay contains (total volume of 30 μL): c-Abl kinase (50 ng), 20 mM Tris·HCl, pH 7.5, 10 mM MgCl2, 10 μM Na3VO4, 1 mM DTT and 0.06 μCi/assay [γ^33 P]-ATP (5 μM ATP) using 30 μg/mL poly-Ala,Glu,Lys,Tyr-6:2:5:1 (Poly-AEKY, Sigma P1152) in the presence of 1% DMSO. Reactions are terminated by adding 10 μL of 250 mM EDTA and 30 μL of the reaction mixture is transferred onto Immobilon-PVDF membrane (Millipore, Bedford, Mass., USA) previously soaked for 5 min with methanol, rinsed with water, then soaked for 5 min with 0.5% H3PO4 and mounted on vacuum manifold with disconnected vacuum source. After spotting all samples, vacuum is connected and each well rinsed with 200 μL 0.5% H3PO4. Membranes are removed and washed on a shaker with 0.5% H3PO4 (4 times) and once with ethanol. Membranes are counted after drying at ambient temperature, mounting in Packard TopCount 96-well frame, and addition of 10 μL/well of Microscint™ (Packard).
Enzymatic (c-Abl, KDR, Flt3) data are given on Table 17 (% inhibition at 10 μM). (Measurements are made as described above in the general description).

[2] = biological target: T2, human VEGF-R2 receptor (KDR) (Homo sapiens, UniProt P35968); test: Inhibition of VEGF-induced VEGF-R2 (KDR) autophosphorylation in transfected CHO cells, sandwich ELISA; format: cell-based; conditions: % inhibition at 10 μM
T2 construct: expressed in transfected cells
Procedure: The inhibition of VEGF-induced receptor autophosphorylation can be confirmed with a further in vitro experiments in cells such as transfected CHO cells, which permanently express human VEGF-R2 receptor (KDR), are seeded in complete culture medium (with 10% fetal calf serum=FCS) in 6-well cell-culture plates and incubated at 37° C. under 5% CO2 until they show about 80% confluency. The compounds to be tested are then diluted in culture medium (without FCS, with 0.1% bovine serum albumin) and added to the cells. (Controls comprise medium without test compounds). After two hours of incubation at 37° C., recombinant VEGF is added; the final VEGF concentration is 20 ng/ml. After a further five minutes incubation at 37° C., the cells are washed twice with ice-cold PBS (phosphate-buffered saline) and immediately lysed in 100 μl lysis buffer per well. The lysates are then centrifuged to remove the cell nuclei, and the protein concentrations of the supernatants are determined using a commercial protein assay (BIORAD). The lysates can then either be immediately used or, if necessary, stored at −20° C.
The plates are then washed and the remaining free protein-binding sites are saturated with 3% TopBlock® (Juro, Cat. # TB232010) in phosphate buffered saline with Tween 20® (polyoxyethylen(20)sorbitane monolaurate, ICI/Uniquema) (PBST). The cell lysates (20 μg protein per well) are then incubated in these plates overnight at 4° C. together with an antiphosphotyrosine antibody coupled with alkaline phosphatase (PY20:AP from Zymed). […] The luminescence is measured in a Packard Top Count Microplate Scintillation Counter. The difference between the signal of the positive control (stimulated with VEGF) and that of the negative control (not stimulated with VEGF) corresponds to VEGF-induced VEGF-R2 phosphorylation (=100%). The activity of the tested substances is calculated as percent inhibition of VEGF-induced VEGF-R2 phosphorylation, wherein the concentration of substance that induces half the maximum inhibition is defined as the IC50 (inhibitory dose for 50% inhibition). […]

T2 sequence (P35968 20-1356): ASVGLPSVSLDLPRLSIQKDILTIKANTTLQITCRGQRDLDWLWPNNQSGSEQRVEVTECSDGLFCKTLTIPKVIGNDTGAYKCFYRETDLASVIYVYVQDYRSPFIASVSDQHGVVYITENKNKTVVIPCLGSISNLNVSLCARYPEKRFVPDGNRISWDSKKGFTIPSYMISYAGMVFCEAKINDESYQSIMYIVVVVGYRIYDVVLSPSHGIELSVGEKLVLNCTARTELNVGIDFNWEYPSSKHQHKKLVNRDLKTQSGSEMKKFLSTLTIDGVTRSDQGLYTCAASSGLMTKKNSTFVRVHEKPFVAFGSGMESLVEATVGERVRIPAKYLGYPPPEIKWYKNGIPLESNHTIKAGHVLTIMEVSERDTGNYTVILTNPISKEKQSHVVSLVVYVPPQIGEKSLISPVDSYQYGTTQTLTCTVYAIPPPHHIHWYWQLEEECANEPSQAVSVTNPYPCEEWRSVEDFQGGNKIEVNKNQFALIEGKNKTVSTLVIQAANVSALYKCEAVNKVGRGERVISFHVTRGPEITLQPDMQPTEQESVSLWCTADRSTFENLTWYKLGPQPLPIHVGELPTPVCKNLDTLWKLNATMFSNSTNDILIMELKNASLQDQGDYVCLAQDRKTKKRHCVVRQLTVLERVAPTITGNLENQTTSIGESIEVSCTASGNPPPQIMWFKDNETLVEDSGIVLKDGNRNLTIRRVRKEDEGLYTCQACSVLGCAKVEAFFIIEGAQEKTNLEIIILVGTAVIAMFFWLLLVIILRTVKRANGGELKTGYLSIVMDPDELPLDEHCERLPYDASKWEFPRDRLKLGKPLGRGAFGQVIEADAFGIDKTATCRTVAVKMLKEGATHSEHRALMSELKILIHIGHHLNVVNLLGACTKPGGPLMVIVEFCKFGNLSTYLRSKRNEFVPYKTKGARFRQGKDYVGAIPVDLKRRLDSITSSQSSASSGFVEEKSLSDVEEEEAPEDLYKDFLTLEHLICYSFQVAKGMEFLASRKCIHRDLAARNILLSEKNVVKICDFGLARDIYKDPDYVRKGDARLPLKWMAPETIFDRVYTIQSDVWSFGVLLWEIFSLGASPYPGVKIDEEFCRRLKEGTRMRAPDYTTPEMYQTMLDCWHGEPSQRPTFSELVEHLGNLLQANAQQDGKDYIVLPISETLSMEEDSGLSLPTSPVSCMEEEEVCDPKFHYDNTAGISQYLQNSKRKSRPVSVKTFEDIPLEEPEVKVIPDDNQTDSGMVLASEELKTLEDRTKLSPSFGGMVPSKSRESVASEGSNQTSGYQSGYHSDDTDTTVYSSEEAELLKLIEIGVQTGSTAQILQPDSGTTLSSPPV

| Structure (SMILES) | c-Abl (% at 10 μM) [1] | KDR trans (% at 10 μM) [2] |
| --- | --- | --- |
| Cc1ccc(NC(=O)Nc2ccc(Oc3ccncc3)cc2)cc1 [Example 4] | 59% | 99% |
| CCc1ccc(NC(=O)N(C)c2ccc(Oc3ccncc3)cc2)cc1 [Example 5] | 46% | 99% |
| CN(C(=O)Nc1cccc(C(F)(F)F)c1)c1ccc(Oc2ccncc2)cc1 [Example 6] | 75% | 100% |
| CCCc1ccc(NC(=O)N(C)c2ccc(Oc3ccncc3)cc2)cc1 [Example 7] | 47% | 97% |
| Cc1ccc(NC(=O)N(C)c2ccc(Oc3ccncc3)cc2)cc1 [Example 8] | 48% | 78% |
| O=C(Nc1ccc(Oc2ccncc2)cc1)Nc1ccc(Br)c(C(F)(F)F)c1 [Example 9] | 100% | 92% |
| O=C(Nc1ccc(Oc2ccncc2)cc1)Nc1ccc(OCC(F)(F)F)c(C(F)(F)F)c1 [Example 10] | 98% | 100% |
| COc1cc(NC(=O)Nc2ccc(Oc3ccncc3)cc2)cc(C(F)(F)F)c1 [Example 11] | 95% | 100% |
| CCCc1ccc(NC(=O)Nc2ccc(Cc3ccncc3)cc2)cc1 [Example 12] | 33% | 97% |
| CCc1ccc(NC(=O)Nc2ccc(Cc3ccncc3)cc2)cc1 [Example 13] | 36% | 98% |
| Cc1ccc(NC(=O)Nc2ccc(Cc3ccncc3)cc2)cc1 [Example 14] | 26% | 97% |
| O=C(Nc1ccc(Cc2ccncc2)cc1)Nc1cccc(C(F)(F)F)c1 [Example 15] | 71% | 99% |
| CCc1ccc(NC(=O)Cc2ccc(Oc3ccncc3)cc2)cc1 [Example 16, N-(4-pyridin-4-yl-oxy-phenyl)acetyl-(4-ethyl-phenyl)-amide] | 66% | 99% |
| Cc1ccc(NC(=O)Cc2ccc(Oc3ccncc3)cc2)cc1 [Example 17] | 18% | 96% |
| CCCc1ccc(NC(=O)Cc2ccc(Oc3ccncc3)cc2)cc1 [Example 18] | 61% | 99% |
| O=C(Nc1cccc(C(F)(F)F)c1)N1CCc2cc(Oc3ccncc3)ccc21 [Example 19, 5(4-pyridyloxy)-N-(3-trifluoromethyl-phenyl)amino-carbonyl-2,3-dihydroindole] | 92% | 86% |
| O=C(Nc1cccc(C(F)(F)F)c1)N1CCCc2cc(Oc3ccncc3)ccc21 [Example 20] | 84% | 93% |
| O=C(Nc1ccc(Oc2cc(Cl)ncn2)cc1)Nc1cccc(C(F)(F)F)c1 [Example 21, N-(4-(6-Chloropyrimidin-4-yl)-oxyphenyl)-N′-(3-trifluoromethylphenyl)-urea] | 70% | 100% |
| Cc1cc(Oc2ccc(NC(=O)Nc3cccc(C(F)(F)F)c3)cc2)ccn1 [Example 30] | 100% | 98% |
| O=C(Nc1ccc(Oc2cc(Nc3ccc(O)cc3)ncn2)cc1)Nc1ccc(OCC(F)(F)F)c(C(F)(F)F)c1 [Example 32] | 98% | 96% |
